Data as given in patent publication US5180742A, “Quinone derivatives, their production and use” (Takeda Chemical Industries, Ltd., priority 1984, dated 1993).

Key:
[1] = system: O2^- production in guinea pigs peritoneal macrophages; test: Inhibitory effect on O2- production in guinea pig peritoneal macrophages (chemiluminescence); type: cell-based, guinea pig (Hartley); conditions: Cavia porcellus, Peritoneal macrophage, 3 experiments
Method: Superoxide (O2^-) Production in Guinea Pig Peritoneal Macrophages
Male Hartley guinea pigs weighing 400-450 g were given intraperitoneally 5 ml of liquid paraffin. Four days later, 15 ml of Hank's buffer were administered into the peritoneal cavity for harvest of peritoneal cells. Macrophages in the peritoneal cells were purified by the method of Wood, P. R. [J. Immunol. Methods, 28, 117-124 (1979)].
The purity of macrophages was more than 95%. The reaction mixture contained 75 μl of macrophages (1×10^7 cells/ml), 5 μl of luminol, 10 μl of phorbol myristate acetate and 10 μl of drugs in a total volume of 100 μl. O2^- Product was assayed by chemiluminescence. Drugs were dissolved in a 10% dimethyl sulfoxide.

[2] = system: LTD4-induced bronchoconstriction; test: Effect on LTD4-induced bronchoconstriction in guinea pigs; type: in vivo
Method: Effect on LTD4 -Induced Brochoconstriction in Guinea Pigs
Bronchoconstriction in guinea pigs was measured by the method of Konzett-Rossler[Naunyn-Schmiedeberg's Arch. exp. Path. Pharmak., 195, 71-74(1940)]. The animals were anesthetized with urethane (1.5 g/kg, intraperitoneally) and the trachea was cannulated. The animals were artificially ventilated by means of a respirator (Harvard apparatus rodent respirator) at a rate of 70 strokes/min and a constant volume of 5-7 ml. Inflation pressure was kept constantly at 10 cm H2 O. Changes in overflow of air from a side-arm of the cannula were recorded on Rectigraph-8S via a bronchospasm transducer for 15 min. LTD4 (10 μg/kg) was given into the […] through an indwelling cannula. Each specimen suspended in a 5% gum arabic solution was also given through the same cannula 1 or 24 hrs before the LTD4 administraction.

[3] = system: PAF-induced bronchoconstriction; test: Effect on PAF-induced bronchoconstriction in guinea pigs; type: in vivo; conditions: one hour before PAF
Method: Platelet Activating Factor (PAF)-Induced Bronchoconstriction in Guinea Pigs
Experimental procedure in this experiment was the same as that in LTD4 -induced bronchoconstriction shown in Experimental example 7. PAF is an intraveneous dose of 1 μg/kg was used. Each specimen suspended in a 5% gum arabic solution was given orally one hour before the PAF administration.

[4] = system: Immunoglobulin-G1 mediated bronchoconstriction reaction; test: Action on immunoglobulin-G1 mediated bronchoconstriction reaction in guinea pigs; type: in vivo, Hartley guinea pigs; conditions: Cavia porcellus; 20 mg/kg oral, 1 hour before antigen
Method: Action on the Immunoglobulin-G1 Mediated Bronchoconstriction Reaction in Guinea Pigs
In accordance with the method of Orange and Moore (Orange, R. P. and Moore E. G. , J. Immunol., 116, 392-397, 1976), female and male Hartley guinea pigs weighing about 350 g were sensitized by intraperitoneal application of an emulsion (1 ml) composed of egg albumin (1 mg) and Freund's complete adjuvant (produced by Wako Pure-Chemical Industries, Ltd. of Japan). 3 Weeks after the sensitization, a serum antibody level in the sensitized guinea pigs was measured by means of the 3-hours passive cutaneous anaphylaxis (PCA) reaction in guinea pigs. […] The broncoconstriction reaction resulting from the antigen-antibody reaction was measured in accordance with the Konzett-Rossler method (Konzett, H. and Rossler, R., Naunyn-Schmiedeberg'ss Arch. exp. Path. pharmak., 195, 71-74, 1940). The guinea pigs were fixed on the dorsal position under anesthesia with a urethane (1.5 g/kg given intraperitonealy). An incision was made through the trachea, which was connected to an artificial respirator (manufactured by Harvard Co.) through an endotracheal tube, with a side tube of the endotracheal tube being attached to a brochoconstricting transducer (type 7020, manufactured by Ugobasile Co.). While an air volume per ventilation was adjusted to 5 to 7 ml and an air ventilation rate was controlled at 70 times/min., with a load pressure to the lung set at 10 cm H2 O, the overflown air volume was recorded on Rectigraphy-8S (manufactured by Sanei Sokki Inc. of Japan) through a transducer. After 1 mg/kg of gallamine triethiodide was given intravenously to the animals, 1 mg/kg of antigen, egg albumin dissolved in physiological saline, was applied intravenously to induce a brochoconstriction reaction. The bronchconstriction reaction was recorded for the period of time of 15 minutes. A drug was suspended in 5% gum arabic solution, and given orally 1 hour before the application of the antigen. Percent inhibition of the immunoglobuin G1 mediated bronchoconstriction reaction in guinea pigs are shown below in Table 3.

5-Lipoxygenase = molecular target: T1, 5-Lipoxygenase (Rattus norvegicus, UniProt P12527); test: 5-Lipoxygenase inhibitory activity: 5-HETE production in RBL-1 cells (HPLC); type: cell-based, rat (RBL-1, rat basophilic leukemia cells); conditions: arachidonic acid + A 23187, 37° C., 20 minutes, read-out: 5-HETE production inhibiting effect (IC50)
T1 construct: endogenous in cells; host or cells: RBL-1 (rat basophilic leukemia cells)
T1 sequence (P12527 1-673): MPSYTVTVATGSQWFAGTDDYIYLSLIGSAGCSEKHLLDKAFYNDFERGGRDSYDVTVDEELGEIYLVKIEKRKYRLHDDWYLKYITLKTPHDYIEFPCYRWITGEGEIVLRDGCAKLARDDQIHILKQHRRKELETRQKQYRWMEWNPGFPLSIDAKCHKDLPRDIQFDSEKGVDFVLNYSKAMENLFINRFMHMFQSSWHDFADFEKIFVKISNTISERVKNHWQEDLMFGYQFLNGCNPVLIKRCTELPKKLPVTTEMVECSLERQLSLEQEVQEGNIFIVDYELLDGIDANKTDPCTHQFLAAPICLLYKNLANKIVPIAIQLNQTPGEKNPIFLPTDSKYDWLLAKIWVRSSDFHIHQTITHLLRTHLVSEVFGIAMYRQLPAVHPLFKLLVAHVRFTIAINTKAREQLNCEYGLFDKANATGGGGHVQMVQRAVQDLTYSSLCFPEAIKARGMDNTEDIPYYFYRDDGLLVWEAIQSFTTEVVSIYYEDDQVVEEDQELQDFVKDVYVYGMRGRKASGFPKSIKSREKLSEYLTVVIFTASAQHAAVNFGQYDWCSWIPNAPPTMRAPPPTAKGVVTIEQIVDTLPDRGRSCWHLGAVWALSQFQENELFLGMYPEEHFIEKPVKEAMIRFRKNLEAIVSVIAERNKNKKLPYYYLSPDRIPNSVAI
Method: 5-Lipoxygenase Inhibitory Activity
10^7 RBL-1 cells (rat basophilic leukemia cells) were suspended in 0.5 ml of MCM (mast cell medium), and test solutions (made up of 0.5 ml of MCM, 50 μg of arachidonic acid, 10 μg of A 23187 (calcium ionophore, Eli Lilly) and 1 μM, 0.1 μM, 0.01 μM and0.001 μM as the final concentration of the quinone compound, respectively) prepared previously were added respectively to the suspension, followed by reaction at 37° C. for 20 minutes. After the conclusion of the reaction, 4 ml of ethanol and 1,4-dimethoxy-2-methyl-3-(3-methoxypropyl)naphthalene as the internal reference drug were added to the reaction solution, and the mixture was shaken thoroughly and allowed to stand at room temperature for 10 minutes. Then, it was centrifuged (2000 r.p.m.) for 10 minutes, and the supernatant fluid was separated and concentrated to dryness under reduced pressure. 0.5 Milliliter of 60% aqueous methanol was added to the concentrate, and 100 μl of the resulting solution was taken and subjected to high-performance liquid chromatography to determine amount of 5-HETE (5-hydroxyeicosatetraenoic acid). Determination of 5-HETE was made through measurement of an absorption at 237 nm with a UV absorption monitor.
The 5-HETE production inhibitory effect (IE) was expressed by [formula] wherein a is a peak height or peak area corrected by the peak for the internal reference when the quinone compound is not contained; b is a peak height or peak area corrected by the peak for the internal reference when the quinone compound is contained.

mice of ICR breed = type: in vivo; conditions: 1000 mg/kg oral, male ICR mice, 7 days
From the text: Acute Toxicity Test in Mice (Acute Toxicity)
1000 Milligrams per kilogram of each set specimen was applied orally to groups of 5 five-weeks old male mice of ICR breed, and a number of dead animals observed for the 7-days period was counted.

## Cc1c(C)c2c(c(C)c1O)CCC(C)(CCCC(C)CCCC(C)CCCC(C)C)O2 (racemic) [dl-α-tocophenol, reference compound]
[1]; 10^-4 M
  inhibition at 100 µM: 11 ± 6%
[1]; 10^-5 M
  inhibition at 10 µM: 3 ± 2%

## COc1ccc(C(CCCCC(=O)O)C2=C(C)C(=O)C(C)=C(C)C2=O)cc1 (stereo not shown) [Compound No. 22, 6-(3,5,6-trimethyl-1,4-benzoquinon-2-yl)-6-(4-methoxyphenyl)hexanoicacid]
[2]; 0.313 mg/kg, 1 hr. before LTD4
  % Inhibition of LTD4-induced bronchoconstriction: 39%
[2]; 1.25 mg/kg, 1 hr. before LTD4
  % Inhibition of LTD4-induced bronchoconstriction: 85%
[2]; 5 mg/kg, 1 hr. before LTD4
  % Inhibition of LTD4-induced bronchoconstriction: 90%
[2]; 5 mg/kg, 24 hrs. before LTD4
  % Inhibition of LTD4-induced bronchoconstriction: 24%
[3]; 0.313 mg/kg oral
  % Inhibition of PAF-induced bronchoconstriction: 43%
[3]; 1.25 mg/kg oral
  % Inhibition of PAF-induced bronchoconstriction: 92%
[3]; 5 mg/kg oral
  % Inhibition of PAF-induced bronchoconstriction: 91%
[4]
  inhibition in vivo at 20 mg/kg: 82%

## CC1=C(C)C(=O)C(C(CCCCCC(=O)O)c2ccc(F)cc2)=C(C)C1=O (stereo not shown) [Compound No. 87]
[2]; 0.313 mg/kg, 1 hr. before LTD4
  % Inhibition of LTD4-induced bronchoconstriction: 80%
[2]; 1.25 mg/kg, 1 hr. before LTD4
  % Inhibition of LTD4-induced bronchoconstriction: 89%
[2]; 5 mg/kg, 1 hr. before LTD4
  % Inhibition of LTD4-induced bronchoconstriction: 93%
[2]; 5 mg/kg, 24 hrs. before LTD4
  % Inhibition of LTD4-induced bronchoconstriction: 79%
[3]; 0.08 mg/kg oral
  % Inhibition of PAF-induced bronchoconstriction: 64%
[3]; 0.313 mg/kg oral
  % Inhibition of PAF-induced bronchoconstriction: 48%
[3]; 1.25 mg/kg oral
  % Inhibition of PAF-induced bronchoconstriction: 71%
5-Lipoxygenase
  IC50: 100 nM
Mice of ICR breed
  Acute toxicity (number of dead animals/number of animals used): 0/5
[4]
  inhibition in vivo at 20 mg/kg: 81%

## CC1=C(C)C(=O)C(C(CCCCCC(=O)O)c2ccc(Cl)cc2)=C(C)C1=O (stereo not shown) [Compound No. 90, 7-(4-chlorophenyl)-7-(3,5,6-trimethyl-1,4-benzoquinon-2-yl)heptanoic acid]
Mice of ICR breed
  Acute toxicity (number of dead animals/number of animals used): 0/5
[4]
  inhibition in vivo at 20 mg/kg: 61%

## COc1ccc(C(CCCCCC(=O)O)C2=C(C)C(=O)C(C)=C(C)C2=O)cc1 (stereo not shown) [compound 23]
[2]; 0.313 mg/kg, 1 hr. before LTD4
  % Inhibition of LTD4-induced bronchoconstriction: 69%
[2]; 1.25 mg/kg, 1 hr. before LTD4
  % Inhibition of LTD4-induced bronchoconstriction: 80%
[2]; 5 mg/kg, 1 hr. before LTD4
  % Inhibition of LTD4-induced bronchoconstriction: 68%
[2]; 5 mg/kg, 24 hrs. before LTD4
  % Inhibition of LTD4-induced bronchoconstriction: 49%
[3]; 0.08 mg/kg oral
  % Inhibition of PAF-induced bronchoconstriction: 75%
[3]; 0.313 mg/kg oral
  % Inhibition of PAF-induced bronchoconstriction: 71%
[3]; 1.25 mg/kg oral
  % Inhibition of PAF-induced bronchoconstriction: 73%
5-Lipoxygenase
  IC50: 10 nM
[4]
  inhibition in vivo at 20 mg/kg: 83%

## CC1=C(C)C(=O)C(C(CCCCCC(=O)O)c2ccc(C)s2)=C(C)C1=O (stereo not shown) [compound 33]
Mice of ICR breed
  Acute toxicity (number of dead animals/number of animals used): 0/5
[4]
  inhibition in vivo at 20 mg/kg: 75%

## CC1=C(C)C(=O)C(C(CCCC(=O)O)c2ccccc2)=C(C)C1=O (stereo not shown) [compound 36]
5-Lipoxygenase
  IC50: 320 nM
Mice of ICR breed
  Acute toxicity (number of dead animals/number of animals used): 0/5
[4]
  inhibition in vivo at 20 mg/kg: 80%

## COC1=C(OC)C(=O)C(C(CCCCCC(=O)O)c2ccc(F)cc2)=C(C)C1=O (stereo not shown) [compound 88]
Mice of ICR breed
  Acute toxicity (number of dead animals/number of animals used): 0/5
[4]
  inhibition in vivo at 20 mg/kg: 79%

## CC1=C(C(CCCCCC(=O)O)c2ccc(Cl)cc2)C(=O)c2ccccc2C1=O (stereo not shown) [compound 92]
Mice of ICR breed
  Acute toxicity (number of dead animals/number of animals used): 0/5
[4]
  inhibition in vivo at 20 mg/kg: 92%

## COC1=C(OC)C(=O)C(C(CCCCCC(=O)O)c2ccc(C)cc2)=C(C)C1=O (stereo not shown) [compound 94]
Mice of ICR breed
  Acute toxicity (number of dead animals/number of animals used): 0/5
[4]
  inhibition in vivo at 20 mg/kg: 81%

## CC1=C(C)C(=O)C(C(CCCCCC(=O)O)c2ccc(C(C)C)cc2)=C(C)C1=O (stereo not shown) [compound 95]
Mice of ICR breed
  Acute toxicity (number of dead animals/number of animals used): 0/5
[4]
  inhibition in vivo at 20 mg/kg: 63%

## COc1ccc(C(CCCCCC(=O)O)C2=C(C)C(=O)C(C)=C(C)C2=O)cc1OC (stereo not shown) [compound 97]
Mice of ICR breed
  Acute toxicity (number of dead animals/number of animals used): 0/5
[4]
  inhibition in vivo at 20 mg/kg: 85%
